Assay results from patent publication EP0358957A1, “Fused tetrahydropyridineacetic acid derivatives, process for their preparation, and use of such compounds for the cardioprotection” (BOEHRINGER INGELHEIM KG, priority 1988, dated 1990).

What follows are molecules tested on isolierten Rattenherzen (assay: Isolated rat heart, method II: coronary flow throttled by 75 %, prevention of the fall in contraction amplitude). Settings: Method II: coronary flow reduced by 75 %; substance added to perfusion medium during flow reduction; concentration needed to prevent the fall in contraction amplitude; read-out: Benötige Konzentrationen.
Parameters: species or system Ratten
Description: Wird ein, längere Zeit unter ischämischen Bedingungen gehaltenes, isoliertes Herz wieder normal perfundiert, so tritt keine sofortige Normalisierung der Herzfunktion ein. Es findet sich vielmehr eine vorübergehende Periode, die durch Kontraktur und Arrhytmien gekennzeichnet ist. Diese Arrhythmiephase ist durch Veränderungen von Funktion und Struktur der Myocardzelle mit intrazellulärer Calciumüberladung bedingt (Hess u. Manson, J. Mol. Cell. Cardiol. 16, 969, 1984). Cardioprotektiv wirksame Verbindungen wie Verapamil und Diltiazem verringern die Calciumüberladung und verbessern das Kontraktionsverhalten bei Reperfusion (Watts et al, Am. J. Physiol. 238, H 909, 1980; Meno et al, Am. J. Physiol. 247, H 380, 1984), Die cardioprotektive Wirkung wird an isolierten Rattenherzen unter Ischämie und anschließender Reperfusion untersucht.
Wird der Coronarfluß isolierter Herzen um 75 % gedrosselt, so reagiert das Herz zunächst mit einer Abnahme der Kontraktionsamplitude, ein Herzstillstand tritt erst innerhalb einer Stunde ein. Cardioprotektive Substanzen, während der Periode der Flußreduzierung dem Perfusionsmedium zugesetzt, verhindern den Abfall der Kontraktionsamplitude.

In order of rising minimal effective concentration:
1. CCCCNC(=O)C(CCc1ccccc1)C1NCCc2cc(OC)c(OC)cc21 (stereo not drawn) [E]  1 µg/mL
2. COc1cc2c(cc1OC)C(C(CCc1ccccc1)C(=O)NCCc1ccncc1)NCC2 (stereo not drawn) [D]  3 µg/mL
3. C=CCN(C1=NCCN1)c1c(Cl)cccc1Cl [Alinidin, reference compound]  8.3 µg/mL
